Measured values published in patent US20220160669A1, “PARENTERAL NUTRITION FORMULATION” (BAXTER INTERNATIONAL INC., priority 2020, published 2022).
“Also recorded” adds a separate entry of the source. Each block holds one molecule with its values, some of them ahead of it.

Assays:
[1] = system: Anti-inflammatory cytokines; test: Anti-inflammatory cytokines, summary (site not stated); assay type: in vivo, pig; design: key: + denotes a positive effect (compared to standard PN); ++ a very positive effect; − denotes no difference; details: compared to standard PN
Description: (§1) Neonatal Yorkshire/Landrace cross bred piglets (n=72; six at a time from the same litter, repeating 12 times) were obtained from Oak Hill Genetics (Ewing, Ill.) after 48-hour sow reared for colostrum consumption and iron supplementation.
The influence of the respective supplements on inflammation was investigated by determining Il-6, Il-1beta, TNF-alpha and Il-10 serum levels in the intervention groups compared to EN and PN according to Milo et al., Effects of Short-Chain Fatty Acid-Supplemented Total Parenteral Nutrition on Intestinal Pro-Inflammatory Cytokine Abundance. Digestive Diseases and Sciences 2002; 47:2049-2055. Jejunal and ileal samples were homogenized in double-distilled water, and the Bradford protein assay (Biorad, Hercules, Calif., USA) was performed on homogenate and plasma samples. Protein (30 μg) from each sample was denatured by boiling, and proteins were separated by size using 12.5% sodium dodecyl sulfate polyacrylamide gel electrophoresis. Separated proteins were transferred to polyvinylidene difluoride membranes (Biorad) using a semidry transfer apparatus (Biorad). Western blot analysis for TNF-alpha, IL-1beta, Il-10 and IL-6 was performed using porcine-specific polyclonal antibodies (Endogen, Woburn, Mass., USA). A mouse anti-pig monoclonal TNF-alpha antibody was used to detect TNF-alpha ([…]). Rabbit anti-pig polyclonal antibodies specific for IL-1beta and IL-6 were used to detect IL-1beta (17,500 kDa), Il-10 (18,600 kDa) and IL-6 (26,000 kDa). Membranes were developed using the Opti-4CN kit (Biorad) and photographed using the FOTO/Analyst Image Analysis System (Fotodyne, Inc., Hartland, Wis., USA). Densitometry of TNF-alpha, IL-1beta, IL-6, and Il-10 was performed using Collage Image Analysis Software 4.0 (Fotodyne, Inc.). Results are shown in FIG. 15 (Il-6), FIG. 16 (Illbeta), FIG. 17 (TNF-alpha) and FIG. 18 (Il-10).

[2] = Stability of butyrate derivative compositions (sterilization, shelf-life); details: for free butyric acid released during the sterilization of the bags: lipid chamber, GC-FID
[3] = system: Neonatal Yorkshire/Landrace cross bred piglets; test: Cognitive assessment by eyeblink conditioning; assay type: in vivo, pig; design: key: + denotes a positive effect (compared to standard PN); ++ a very positive effect; − denotes no difference; details: compared to standard PN
Description: Eyeblink conditioning is an established Pavlovian method to assess the cerebellum and associated brainstem circuitry with hippocampus involvement that are essential for learning and memory. The eyeblink conditioning procedure took place in a sound-attenuating chamber. A fan was inside the chamber and ran throughout the experiment for ambient noise (70 dB). A speaker mounted to the wall of the chamber delivered the tone conditioned stimulus (CS). A small plastic air puff delivery nozzle (San Diego Instruments, San Diego, Calif.) was secured at approximately 2 cm from the piglet's left eye to deliver the unconditioned stimulus (US). After adaptation to the conditioning apparatus on study day 3, a total of five CS-US conditioning sessions occurred on study days 4-8 following. Each conditioning session consisted of 90 CS-US paired trials and 10 CS alone trials for a total of 100 trials/session. Every tenth trial was a CS alone trial. The CS-US paired trials included: a 500 ms auditory CS (1 kHz, 85 dB tone), a 400 ms interstimulus interval (ISI), followed by a 100 ms corneal airpuff US (10 psi). Both the CS and US were co-terminated at the exact same time. The CS alone trials consisted of a 500 ms auditory CS (1 kHz, 85 dB tone) only. There were random inter-trial intervals of 20 seconds throughout each session. Each conditioning session lasted no longer than 35 minutes. The San Diego Instruments eyeblink software was used to record conditioning session moment-to-moment infrared-reflectance data.

[4] = system: Neonatal Yorkshire/Landrace cross bred piglets; test: Duodenal mucosal resistance (Ussing chamber), PN-fed neonatal piglets; assay type: in vivo, pig; design: key to Duodenal Mucosal Resistance (Ussing chamber): +++ indicate P < 0.01; ++ indicates P < 0.05; + indicates positive trends; = denotes no significant P value; − denotes negative trends; key to Duodenal mucosal resistance, Grouping (Fisher's LSD test): Groups that do not share a letter are significantly different; ab: Groups that do not share a letter are significantly different; b: Groups that do not share a letter are significantly different; details: for Mean duodenal mucosal resistance: N 12; for Duodenal mucosal resistance, Grouping (Fisher's LSD test): PN group a, EN group b; for Duodenal Mucosal Resistance (Ussing chamber): compared to standard PN (s-PN)
Description: It is known also that there is a relationship between intestinal epithelial integrity and intestinal health (Thomson et al., The Ussing chamber system for measuring intestinal permeability in health and disease, BMC Gastroenterology 2019; 19:98). Impairment of barrier function has been linked to intestinal diseases such as, for example, ulcerative colitis and Crohn's disease. The so-called Ussing system offers an ex vivo measurement of the permeability or duodenal mucosal resistance. The system allows to measure said duodenal mucosal (transepithelial) resistance (TER), which can be determined to give an overall measurement of gut integrity. A low TER value is indicative of increased permeability. Prior studies have shown that decreased TER under inflammatory conditions was associated with down regulation of “sealing” tight junctional proteins. Accordingly, determining epithelial integrity by means of the Ussing chamber constituted one option to assess the influence of various nutritional options (e.g. EN vs PN) and various PN compositions (see Example 3.5) on gut health and specifically on local inflammatory incidents.
as §1
Duodenal mucosal resistance was determined according to known methods and according to Tappenden et al., Short-Chain Fatty Acid-Supplemented Total Parenteral Nutrition Enhances Functional Adaptation to Intestinal Resection in Rats. Gastroenterology 1997; 112:792-802. Pieces of intestine (1 cm^2) were cut out, and the tissue was mounted as flat sheets in incubation chambers containing oxygenated Krebs' bicarbonate buffer (pH 7.4) at 37° C. Tissue discs were preincubated in this buffer for 15 minutes to allow equilibration at this temperature. After preincubation, the chambers were transferred to other beakers containing [^3H]inulin and various 14C probe molecules in oxygenated Krebs' bicarbonate (pH 7.4 and 37° C.). The concentration of solutes was 4, 8, 16, 32, or 64 mmol/L for D-glucose and 16 mmol/L for L-glucose. The preincubation and incubation solutions were mixed at identical stirring rates with circular magnetic bars, and the stirring rates were adjusted by means of a strobe light. A stirring rate of 600 rpm was selected to achieve low effective resistance of the intestinal unstirred water. The experiment was terminated by removing the chambers and quickly rinsing the tissue in cold saline for approximately 5 seconds. The exposed mucosal tissue was then cut out of the chamber with a circular steel punch. For all probes, the tissue was dried overnight in an oven at 55° C. The dry weight of the tissue was determined, the sample was saponified with 0.75N NaOH, scintillation fluid was added (Beckman Ready Solv HP; Beckman, Mississauga, ON), and radioactivity was determined by means of […] an external standardization technique to correct for variable quenching of the two isotopes. The mucosal weight was determined after scraping of the intestine from adjacent samples not used for uptake studies. The weight of the mucosa in the samples used to measure uptake was determined by multiplying the dry weight of the intestinal sample by the percentage of the intestinal wall comprised of mucosa.

free butyric acid released during the sterilization of the bags [2]: only very limited amounts
Molecule: CCCCCCCCCCCCCCCC(=O)OCC(COC(=O)CCC)OC(=O)CCCCCCCCCCCCCCC (centres unmarked) [1,2-Dipalmitoyl 3-butyryl glycerol]
Anti-inflammatory cytokines ([1]; 10 mmol/L in PN): + | Cognitive ([3]; 10 mmol/L in PN): − | Mean duodenal mucosal resistance ([4]; 10 mmol/L TPN (Groups A, C, D)): 15.8264 | Duodenal mucosal resistance, Grouping (Fisher's LSD test) ([4]; 10 mmol/L TPN (Groups A, C, D)): ab | duodenal mucosal resistance, in words ([4]; 10 mmol/L TPN (Groups A, C, D), listed as D): significantly different from the PN; also recorded: almost as good as in Group E

Molecule: L-arginine, butanoate (3:4) [Arginine butyrate]
Anti-inflammatory cytokines ([1]; 10 mmol/L in PN): ++ | stable shelf-life ([2]; 25° C. and 40% relative humidity (RH), in an amino acid formulation): at least 12 months | stability during production and sterilization ([2]; amino acid chamber / amino acid formulation): stable during production, sterilization | concentration at which aqueous composition is producible and stable ([2]; aqueous arginine butyrate composition): up to 5500 mg/L | Cognitive ([3]; 10 mmol/L in PN): − | duodenal mucosal resistance, in words ([4]; 10 mmol/L TPN (Groups A, C, D)): significantly lower loss of mucosal resistance compared to the other intervention groups | Mean duodenal mucosal resistance ([4]; 10 mmol/L TPN (Groups A, C, D)): 8.2593 | Duodenal mucosal resistance, Grouping (Fisher's LSD test) ([4]; 10 mmol/L TPN (Groups A, C, D)): b | duodenal mucosal resistance, in words ([4]; 10 mmol/L TPN (Groups A, C, D), listed as C): significantly different from the PN | Duodenal Mucosal Resistance (Ussing chamber) ([4]; 10 mmol/L): ++^2 (++ indicates P < 0.05)

free butyric acid released during the sterilization of the bags [2]: only very limited amounts
Molecule: CCCC(=O)OCC(COC(=O)CCC)OC(=O)CCC [Tributyrin]
Anti-inflammatory cytokines ([1]; 10 mmol/L in PN): − | Anti-inflammatory cytokines ([1]; 30 mmol/L in PN): + | Cognitive ([3]; 10 mmol/L in PN): − | Cognitive ([3]; 30 mmol/L in PN): − | duodenal mucosal resistance, in words ([4]; 10 mmol/L TPN (Groups A, C, D)): significantly different from the PN | Mean duodenal mucosal resistance ([4]; 10 mmol/L TPN (Groups A, C, D)): 21.8442 | Duodenal mucosal resistance, Grouping (Fisher's LSD test) ([4]; 10 mmol/L TPN (Groups A, C, D)): ab | Duodenal Mucosal Resistance (Ussing chamber) ([4]; 10 mmol/L): = | duodenal mucosal resistance, in words ([4]; 30 mmol/L TPN (Group B)): significantly different from the PN | Mean duodenal mucosal resistance ([4]; 30 mmol/L TPN (Group B)): 16.0234 | Duodenal mucosal resistance, Grouping (Fisher's LSD test) ([4]; 30 mmol/L TPN (Group B)): ab | Duodenal Mucosal Resistance (Ussing chamber) ([4]; 30 mmol/L): =
